Measurements from ChEMBL document CHEMBL1157538, “Discovery of a potent, selective, and orally bioavailable c-Met inhibitor: 1-(2-hydroxy-2-methylpropyl)-N-(5-(7-methoxyquinolin-4-yloxy)pyridin-2-yl)-5-methyl-3-oxo-2-phenyl-2,3-dihydro-1H-pyrazole-4-carboxamide (AMG 458)” (J Med Chem, 2008).

Assays:
[1] = molecular target: T1, Hepatocyte growth factor receptor (Homo sapiens, UniProt P08581); experiment: Inhibition of HGF-mediated c-Met phosphorylation in human PC3 cells; format: cell-based, PC-3
[2] = molecular target: T1, Hepatocyte growth factor receptor; experiment: Inhibition of c-Met phosphorylation by HTRF assay
[3] = Half life in rat; format: ADME, organism-based; conditions: in vivo
[4] = Clearance in rat; format: ADME, organism-based; conditions: in vivo
[5] = Intrinsic clearance in human liver microsome; format: ADME; conditions: liver microsomes
[6] = Intrinsic clearance in BALB/c mouse liver microsome; format: ADME; conditions: liver microsomes
[7] = Oral bioavailability in rat; format: ADME, organism-based; conditions: in vivo
[8] = Intrinsic clearance in Sprague-Dawley rat liver microsome; format: ADME; conditions: liver microsomes

Compound | IC50 [1] [µM] | Ki [2] [µM] | half-life [3] [h] | clearance [4] [L/h/kg] | microsomal CLint [5] [µL/min/mg] | microsomal CLint [6] [µL/min/mg] | bioavailability [7] [%] | microsomal CLint [8] [µL/min/mg]
COc1ccc2c(Oc3ccc(NC(=O)c4c(C)n(CC(C)(C)O)n(-c5ccccc5)c4=O)cc3F)ccnc2c1 | 0.05 | 0.0027 | – | – | – | – | – | –
COc1ccc2c(Oc3ccc(NC(=O)c4c(C)n(C[C@H](C)O)n(-c5ccccc5)c4=O)cc3F)ccnc2c1 | – | – | 1.9 | < 0.2 | < 55 | < 45 | > 50 | < 60
